Results taken from PubChem BioAssay (NCI).
Several values for one entry are separate records, joined by “and”; a condition that tells them apart may be missing. Identical values can stand only once.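 Dose response: 5 concentrations. Exposure: 48 h. Format: 96-well plates. Endpoint: linear interpolation; highest concentration if not reached. At the GI50, growth is halved. TGI: concentration producing complete growth inhibition.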

Columns and labels:
Assay in all cases: NCI anticancer screen, dose series, 48 h
IGROV1 ovarian = system: IGROV1 ovarian
SNB-75 CNS = system: SNB-75 CNS
UO-31 renal = system: UO-31 renal
CCRF-CEM leukemia = system: CCRF-CEM leukemia
SK-OV-3 ovarian = system: SK-OV-3 ovarian
SW-620 colon = system: SW-620 colon
OVCAR-4 ovarian = system: OVCAR-4 ovarian
HCT-15 colon = system: HCT-15 colon
HCC-2998 colon = system: HCC-2998 colon
HCT-116 colon = system: HCT-116 colon

SMILES	TGI (IGROV1 ovarian) [µM]	TGI (SNB-75 CNS) [µM]	TGI (UO-31 renal) [µM]	TGI (CCRF-CEM leukemia) [µM]	TGI (SK-OV-3 ovarian) [µM]	TGI (SW-620 colon) [µM]	TGI (OVCAR-4 ovarian) [µM]	TGI (HCT-15 colon) [µM]	TGI (HCC-2998 colon) [µM]	GI50 (IGROV1 ovarian) [µM]	GI50 (SNB-75 CNS)	GI50 (UO-31 renal) [µM]	GI50 (CCRF-CEM leukemia) [µM]	GI50 (SW-620 colon) [µM]	GI50 (OVCAR-4 ovarian) [µM]	GI50 (HCT-116 colon) [µM]	TGI (HCT-116 colon) [µM]	GI50 (HCT-15 colon) [µM]	GI50 (HCC-2998 colon) [µM]	GI50 (SK-OV-3 ovarian) [µM]
N#CCCc1nc2ccc(Br)cc2c(=O)n1CCO	> 100	> 100	> 100	> 100	> 100	> 100	> 100	> 100	> 100	–	–	–	–	–	–	–	–	–	–	–
O=C(Oc1ccc(O)c2c(=O)n3c(cc12)[nH]c1ccccc13)c1ccccc1	24.6	> 100	10.1	20.7	–	26.9	> 100	28.2	36.9	10.6	28.3 µM	2.19	3.71	5.1	49	11.3	23.5	12.9	18.6	–
O=c1ccn(C2OC(CO)C(O)C2O)c(=O)[nH]1 (stereo not given)	> 1000	> 1000	–	> 1000	> 1000	> 1000	> 1000	> 1000	> 1000	> 1000	789 µM and > 10 µM	–	> 1000	> 1000	> 1000	> 1000	> 1000	> 1000	> 1000	> 1000
CC1(C)C=CC[C@]2(C)[C@H]3CC[C@@H]4[C@H]5[C@H](C(=O)/C=C/c6cccnc6)CC[C@]5(CO)CC[C@@]4(C)[C@]3(C)CC[C@@H]12	2.77	–	2.45	5.34	3.62	2.31	3.41	–	–	1.31	–	1.21	0.56	1	1.47	1.05	2.32	–	–	1.78
CCN(CC)CCn1c2c3ccccc3ccc2c2oc(=O)c3ccccc3c21	> 100	42.8	> 100	> 100	> 100	> 100	96.5	> 100	–	–	–	–	–	–	–	–	> 100	–	–	–
CC(=O)O/N=C/c1ncccc1CO	> 100	> 100	> 100	> 100	> 100	> 100	> 100	> 100	–	–	–	–	–	–	–	–	> 100	–	–	–
CN1CCN(CCSC2Cc3cc(Cl)ccc3Sc3ccccc32)CC1 (stereo not given)	25.6	15.7	21.6	–	32.5	7.21	18.2	12.2	15.3	–	–	–	–	–	–	–	15.3	–	–	–
CC(=O)CC1CCC(=O)CCC(=O)OC(CC(C)=O)CCC(=O)CCC(=O)O1 (stereo not given)	> 100	> 100	–	> 100	> 100	> 100	> 100	> 100	> 100	–	–	–	–	–	–	–	> 100	–	–	–
Cc1nc2ccc(C(F)(F)F)cc2nc1Nc1ccc(Cl)c(Cl)c1	–	–	24.6	26.7	36	28.3	–	18.5	13.7	–	–	–	–	–	–	–	22.2	–	–	–
Cc1nc(N)sc1C(=O)/C=C/c1ccc(/C=C/C(=O)c2sc(NC(=O)CCCCCCCCC(=O)Nc3nc(C)c(C(=O)/C=C/c4ccc(/C=C/C(=O)c5sc(N)nc5C)cc4)s3)nc2C)cc1	> 100	–	> 100	> 100	> 100	> 100	> 100	> 100	> 100	–	–	–	–	–	–	–	> 100	–	–	–
c1cnc2c(c1)-n1cccc1C1(CCSCC1)NN2	–	> 100	94.1	> 100	–	> 100	> 100	> 100	> 100	–	–	–	–	–	–	–	> 100	–	–	–
O=c1oc2ccccc2c(O)c1/C=N\c1nc(-c2ccccc2)cs1	27.8	21.6	20.4	9.74	> 100	16.2	> 100	–	> 100	–	–	–	–	–	–	–	22	–	–	–
O=C(Nc1ccc(Cl)cc1)Nc1ccc(Cl)c(Cl)c1	> 100	> 100	10.1	7.8	–	> 100	> 100	62.5	44.5	4.78	2.59 µM	2.32	2.25	3.95	3.88	3.5	> 100	2.92	3.9	–
CC1(C)C(=O)N(c2ccccc2)C(=O)N1c1nc2ccccc2[nH]1	> 100	> 100	> 100	> 100	> 100	36.3	–	> 100	> 100	–	–	–	–	–	–	–	> 100	–	–	–
CCOC(=O)C(C)(C)Oc1ccc2c(=O)cc(-c3ccc(Cl)cc3)oc2c1	> 100	> 100	> 100	> 100	–	> 100	> 100	> 100	> 100	–	–	–	–	–	–	–	> 100	–	–	–
Cc1nn(C(=O)c2ccccc2O)c2c1C(c1ccccc1)SC(N)=N2 (stereo not given)	6.96	–	–	8.15	> 10	> 10	> 10	> 10	> 10	–	–	–	–	–	–	–	> 10	–	–	–
CCN(CC)CCNc1c(OC)cc(C)c2sc3ccccc3c(=O)c12	20.7	28.7	20.3	–	31.3	17.9	14.8	14.4	–	–	–	–	–	–	–	–	16.3	–	–	–
COc1cc([C@H](C)c2ccc3ccccc3c2)cc(OC)c1OC	> 100	–	> 100	> 100	61.6	> 100	> 100	> 100	> 100	0.804	–	0.665	0.274	0.0974	1.17	–	–	0.311	1.24	0.594
CC(=O)O[C@H]1C(N(C)C(=O)c2ccccc2)CC[C@]2(C)C3CC[C@@]4(C)C(CC(O)[C@@H]4C(C)N(C)C)[C@@H]3CCC12 (stereo not given in full)	> 100	> 100	–	> 100	> 100	> 100	> 100	> 100	> 100	–	–	–	–	–	–	–	> 100	–	–	–
C=CCn1c(C)nc2cc(Nc3nc(Nc4ccc5nc(C)n(CC=C)c5c4)c4ccccc4n3)ccc21	–	2.3	2.74	0.76	–	–	0.583	–	2.5	–	0.745 µM	1.4	0.279	–	0.24	–	–	–	1.17	–
